Laboratory results taken from patent publication US20070219213A1, “Use of Adrenergic N-Phenylpiperazine Antagonists, Pahrmaceutical Compositions Containning Them, and Methods of Preparing Them” (priority 2004, published 2007).

Experiments:
[1] = system: alpha 1A adrenoceptor (human prostatic membranes); conditions: similar models; literature (Motiyama et al.); cited from earlier work
alpha 1B subtype = target: T1, alpha 1B subtype (Rattus norvegicus, UniProt P15823); assay: [3H]prazosin binding assay in rat liver; conditions: rat liver, α1B; read-out: IC50
T1 construct: from tissue; host or cells: rat liver homogenate/membranes
T1 sequence (P15823 1-515): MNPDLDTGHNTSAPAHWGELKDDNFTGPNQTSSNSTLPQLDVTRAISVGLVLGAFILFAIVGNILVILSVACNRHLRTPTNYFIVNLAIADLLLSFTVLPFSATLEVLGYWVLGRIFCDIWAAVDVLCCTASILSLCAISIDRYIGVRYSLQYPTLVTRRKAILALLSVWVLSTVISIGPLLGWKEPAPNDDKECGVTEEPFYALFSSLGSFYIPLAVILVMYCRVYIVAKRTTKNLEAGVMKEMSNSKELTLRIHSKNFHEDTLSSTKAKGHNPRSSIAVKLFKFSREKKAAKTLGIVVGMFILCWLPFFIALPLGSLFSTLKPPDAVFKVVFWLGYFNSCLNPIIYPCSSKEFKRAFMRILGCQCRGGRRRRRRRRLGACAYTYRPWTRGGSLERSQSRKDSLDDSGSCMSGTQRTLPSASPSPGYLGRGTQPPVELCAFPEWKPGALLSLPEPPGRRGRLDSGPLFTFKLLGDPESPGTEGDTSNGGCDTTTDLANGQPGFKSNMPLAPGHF

α1A = target: T2, α1A (Oryctolagus cuniculus, UniProt O02824); assay: Binding study in rabbit liver; conditions: rabbit liver, α1A; read-out: IC50
T2 construct: from tissue
T2 sequence (O02824 1-466): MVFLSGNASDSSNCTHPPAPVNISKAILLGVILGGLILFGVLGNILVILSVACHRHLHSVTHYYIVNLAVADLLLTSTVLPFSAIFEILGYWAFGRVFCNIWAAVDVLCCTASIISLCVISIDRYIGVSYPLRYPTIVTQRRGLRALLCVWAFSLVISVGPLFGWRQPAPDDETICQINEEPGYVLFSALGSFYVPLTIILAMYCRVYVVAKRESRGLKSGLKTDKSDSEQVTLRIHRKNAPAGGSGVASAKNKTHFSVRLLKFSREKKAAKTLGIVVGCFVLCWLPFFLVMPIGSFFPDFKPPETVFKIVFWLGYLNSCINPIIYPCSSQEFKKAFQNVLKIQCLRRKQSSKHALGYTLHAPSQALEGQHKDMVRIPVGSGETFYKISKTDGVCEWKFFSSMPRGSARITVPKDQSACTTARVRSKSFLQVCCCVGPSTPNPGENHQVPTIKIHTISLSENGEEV

[2] = system: phenylephrine vasopressor effects; assay: Inhibition of phenylephrine vasopressor effects in anesthetized rabbits; type: in vivo; conditions: rabbit, n=5
Experimental: Animal and Homodynamic Measurements:
The experiments were performed with male rabbits weighing 3 kg, from the CECAL (Centro de Criação de Animais de Laboratório) at Fundação Oswaldo Cruz. The animals were anesthetized with sodium pentobarbital (40 mg/kg) in the ear marginal vein, and anesthesia maintenance was obtained with supplemental intravenous (i.v.) doses of 5 mg/kg as necessary. The […] were tracheomized, inserted with a polyethylene canule, and immobilized with pancuronium bromide (1 mg/kg, i.v.), with supplemental doses of 0.2 mg/kg for each hour of experiment and artificially ventilated with a mechanical fan (Rodent ventilator 7025, Ugo Basile) with a volume of 10 ml/kg and frequency from 40 to 50 incursions/min. The right femoral vein was catheterized for drug administration.
The arterial pressure was monitored through abdominal aorta catheter via the right femoral artery and connected to a quartz transductor Hewlett Packard (1290 A), which was connected to an arterial pressure processor and recorder Hewlett Packard (system 7754 with amplifier 8805 B).
The systolic (SAP) and diastolic (DAP) arterial pressures were obtained directly from the records and the average arterial pressure (AAP) was calculated by DAP's Sum with a third of the differential pressure [[…]]. The cardiac frequency was determined by counting the pressure waves, visualized with the speed increase of the recorder paper.
The cardiac debit (DC) was monitored using an electromagnetic probe, connected to a Skalar flowmeter model MDL 1401. After left thoraxatomy, between the second and third ribs, was made an incision in the pericardium and the heart was exposed to enable the visualization and dissection of the ascending aorta for installation of the electromagnetic probe. The systemic vascular resistance (SVR) was calculated as a quotient of the average arterial pressure by the cardiac debit, multiplied by a conversion factor 80 (SVR=AAP/DC×80) and expressed in dyn/seg/cm-5.
At the conclusion of the anesthetic-surgical procedures, a 15-minute period was allowed for stabilization of the homodynamic parameters. Before any pharmacological manipulation the average arterial pressure, cardiac frequency and cardiac debit measurements were obtained. These values were considered basal homodynamic values.
Dose-Response Curve of the Phenylephrine Vasopressor Effect:
After surgical procedures and stabilization of the homodynamic parameters, a dose-response curve of the phenylephrine pressure effects was performed ([…], i.v.), that were named control curves. […]
The results were expressed as average±standard deviation (E.P.M.) The administration effects of LASSBio 772 with regard to the basal values were analyzed through variance analysis (ANOVA) for repeated measurements. […]

[3] = target: T3, alpha 1D adrenoceptor (rat aorta) (Rattus norvegicus, UniProt P23944); assay: Vasoconstriction assay in rat aorta induced by norepinephrine; type: cell-based; conditions: pKB, rat aorta, α1D
T3 construct: from tissue; host or cells: rat aorta segments with endothelium
T3 sequence (P23944 1-561): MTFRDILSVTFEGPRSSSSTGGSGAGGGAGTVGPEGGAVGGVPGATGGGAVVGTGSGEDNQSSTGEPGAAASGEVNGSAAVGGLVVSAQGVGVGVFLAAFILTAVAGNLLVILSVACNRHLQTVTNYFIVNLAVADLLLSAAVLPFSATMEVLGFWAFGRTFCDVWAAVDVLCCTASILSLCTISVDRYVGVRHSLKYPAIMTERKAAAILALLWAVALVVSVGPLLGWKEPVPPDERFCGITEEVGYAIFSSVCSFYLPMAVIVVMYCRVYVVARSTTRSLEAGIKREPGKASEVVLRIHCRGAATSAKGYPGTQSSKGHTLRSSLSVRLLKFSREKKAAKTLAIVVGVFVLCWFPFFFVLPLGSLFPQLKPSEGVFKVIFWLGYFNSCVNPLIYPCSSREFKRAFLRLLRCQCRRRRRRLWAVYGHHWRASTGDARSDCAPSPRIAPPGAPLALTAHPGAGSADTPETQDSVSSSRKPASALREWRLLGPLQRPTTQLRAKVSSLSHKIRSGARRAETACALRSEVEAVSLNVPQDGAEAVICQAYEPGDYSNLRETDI
Experimental: Vasoconstriction Assay in Mouse Aorta Induced By Norepinephrine
Aorta segments with endothelium (3 mm), withdrawn from young male rats (250-300 g), were placed in containers containing physiologic solution (NaCl 122 mM, KCl 5 mM, NaHCO3 15 mM, glucose 11.5 mM, MgCl2 1.2 mM, CaCl2 1.25 mM and KH2PO4 1.2 mM), kept at 37° C. under aeration with a mixture of 95% of O2 and 5% of CO2, and submitted to a pre-charge of 5 mN for 60 minutes. During this period, eventual tension adjustments were performed until the stabilization in 0.5 g, always with renewal with physiologic solution. Then, vasoconstriction was induced by 60 mM KCl solution, in each ring, to verify the viability of the organ on the day of experiment. The preparation was submitted to the contraction with norepinephrine (5×10^−5 M) and, then the rings were washed to reach the basal line (0% of vasoconstriction). The procedure was repeated until the obtainment of a constant curve. Later, a curve, using increasing concentrations of norepinephrine (3×10^−8-5×10^−5 M), was performed for each ring, as a positive control. The segments were washed to reach the basal line (0% of vasoconstriction) and incubated with the test compounds, individually, for 30 minutes. A second norepinephrine curve was performed and obtained data compared to the first control curve. […] The aorta rings were used once for each compound.
Determination of the LASSBio 772 Antagonist Potency (pKB) on the Vasoconstriction of Rabbit or Rat Thoracic Aorta.

alpha 1A subtype = target: T4, alpha 1A subtype (Rattus norvegicus, UniProt P43140); design: from tissue; host or cells: rat salivary gland homogenate/membranes; conditions: 0.06 nM [3H]prazosin (Michel et al.), read-out: IC50 of reference; cited from earlier work
T4 sequence (P43140 1-466): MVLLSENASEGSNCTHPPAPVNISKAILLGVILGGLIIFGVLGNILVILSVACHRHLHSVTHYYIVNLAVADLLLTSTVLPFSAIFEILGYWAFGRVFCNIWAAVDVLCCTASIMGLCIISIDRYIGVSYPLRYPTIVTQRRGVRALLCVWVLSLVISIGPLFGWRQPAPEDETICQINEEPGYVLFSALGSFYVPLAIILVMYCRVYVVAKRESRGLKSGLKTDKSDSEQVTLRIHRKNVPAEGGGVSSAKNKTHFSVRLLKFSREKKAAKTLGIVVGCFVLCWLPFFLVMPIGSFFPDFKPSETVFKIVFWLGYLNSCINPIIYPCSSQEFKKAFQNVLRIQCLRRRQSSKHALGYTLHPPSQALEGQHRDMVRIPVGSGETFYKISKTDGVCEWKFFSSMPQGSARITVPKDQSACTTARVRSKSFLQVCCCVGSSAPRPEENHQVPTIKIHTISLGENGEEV

[4] = system: alpha 1A and alpha 1B adrenoceptors (rabbit aorta, α1A > α1B); conditions: literature (Yamagishi et al.); cited from earlier work

C[C@H](Cc1cc2c(c(C(N)=O)c1)N(CCCO)CC2)NCCOc1ccccc1OCC(F)(F)F [KMD-3213]
Kb [1]: 0.35 nM
pKB [1]: 9.45

CCOc1ccccc1OCCN[C@H](C)Cc1ccc(OC)c(S(N)(=O)=O)c1 [tamsulosin]
Kb [1]: 0.2 nM
pKB [1]: 9.68

COc1ccccc1N1CCN(CCc2ccccc2)CC1 [LASSBio 772B, 4-Phenethyl-1-(2-methoxy-phenyl)-piperazine]
IC50 (alpha 1B subtype): 130 nM
IC50 (α1A): 23.9 nM
AAP increase induced by phenylephrine in the presence of compound ([2]; phenylephrine 100 μg/kg i.v.): 9±4%
SVR increase induced by phenylephrine in the presence of compound ([2]; phenylephrine 100 μg/kg i.v.): 15±5%
decrease of DC induced by phenylephrine in the presence of compound ([2]; phenylephrine i.v.): 7±2%
Kb [3]: 0.02 nM

COc1cccc(OC)c1OCCNCC1COc2ccccc2O1 (stereo not drawn) [WB 4101]
IC50 (alpha 1A subtype): 0.6 nM

COc1cc2nc(N3CCN(C(=O)c4ccco4)CC3)nc(N)c2cc1OC [Prazosin, prazosin]
Kb [1]: 1.45 nM
pKB [1]: 8.84
Kb [4]: 1.02 nM
pKB [4]: 9.05
